Test results: the NIST ThermoML archive (doi:10.1016/j.fluid.2015.07.030)

Assay: refractive index (other wavelength) (dimensionless); xn = mol fraction of the nth substance listed
Settings: 298.15 K, 95.99 kPa, Liquid, Standard Abbe refractometry

OCCOCCOCCO [triethylene glycol] + O
refractive index
Settings | Wavelength=486.1 nm | Wavelength=546.1 nm | Wavelength=587.6 nm | Wavelength=589.3 nm | Wavelength=632.8 nm | Wavelength=644 nm
x2 = 0 | – | 1.45629 | 1.45447 | 1.4544 | 1.45284 | 1.45249
x2 = 0.1056 | – | 1.45488 | 1.45307 | 1.453 | 1.45145 | 1.45109
x2 = 0.2069 | – | 1.45318 | 1.45138 | 1.45132 | 1.44978 | 1.44942
x2 = 0.3104 | – | 1.44993 | 1.44814 | 1.44807 | 1.44653 | 1.44617
x2 = 0.4844 | – | 1.44606 | 1.44428 | 1.44422 | 1.44269 | 1.44234
x2 = 0.5016 | 1.44841 | 1.44506 | 1.44328 | 1.44322 | 1.44169 | 1.44134
x2 = 0.5952 | 1.44171 | 1.43842 | 1.43668 | 1.43661 | 1.4351 | 1.43475
x2 = 0.6016 | 1.44175 | 1.43845 | 1.43673 | 1.43666 | 1.43516 | 1.43481
x2 = 0.6788 | 1.43522 | 1.43197 | 1.43025 | 1.43019 | 1.4287 | 1.42835
x2 = 0.7835 | 1.42571 | 1.42254 | 1.42088 | 1.42082 | 1.41936 | 1.41901
x2 = 0.8184 | 1.42045 | 1.41732 | 1.41568 | 1.41562 | 1.41417 | 1.41382
x2 = 0.8473 | 1.41417 | 1.41108 | 1.40947 | 1.40941 | 1.40798 | 1.40763
x2 = 0.8719 | 1.40723 | 1.40421 | 1.40261 | 1.40255 | 1.40113 | 1.40079
x2 = 0.8926 | 1.3994 | 1.39645 | 1.39488 | 1.39482 | 1.39343 | 1.3931
x2 = 0.9106 | 1.39379 | 1.39086 | 1.3893 | 1.38924 | 1.38785 | 1.38752
x2 = 0.9254 | 1.3833 | 1.38042 | 1.37889 | 1.37884 | 1.37748 | 1.37714
x2 = 0.9303 | 1.38472 | 1.38187 | 1.38035 | 1.38029 | 1.37892 | 1.37859
x2 = 0.9391 | 1.38066 | 1.37781 | 1.37628 | 1.37622 | 1.37485 | 1.37452
x2 = 0.951 | 1.37385 | 1.37104 | 1.36953 | 1.36947 | 1.36812 | 1.3678
x2 = 0.9599 | 1.36797 | 1.36514 | 1.36364 | 1.36359 | 1.36225 | 1.36139
x2 = 0.9708 | 1.35998 | 1.35727 | 1.35581 | 1.35576 | 1.35444 | –
x2 = 0.979 | 1.35488 | 1.35218 | 1.35072 | 1.35066 | 1.34937 | –
x2 = 0.9867 | 1.34888 | 1.34617 | 1.34473 | 1.34467 | 1.3434 | –
x2 = 0.9936 | 1.34258 | 1.33995 | 1.33852 | 1.33847 | 1.3372 | –
